Values of other authors, collected in Sander's compilation of Henry's law constants (doi:10.1021/je049850a).

Assay: Henry solubility constant Hcp at 298.15 K (mol/(m3 Pa))
Details: reference: Plyasunov et al. (2004); cited value

Structure (SMILES)	Henry solubility constant Hcp
CC(=O)OC(C)(C)C [1,1-dimethylethyl ethanoate]	0.011
CCC(C)OC(C)=O (stereo not drawn) [2-butyl ethanoate]	0.023
CC(C)COC(=O)C(C)C [2-methylpropyl 2-methylpropanoate]	0.0078
CC(=O)OCC(C)C [2-methylpropyl ethanoate]	0.024
CCCC(=O)OC(C)C [2-propyl butanoate]	0.018
CC(=O)OC(C)C [2-propyl ethanoate]	0.033
CC(=O)OCCC(C)C [3-methylbutyl ethanoate]	0.02
CC(C)CCOC=O [3-methylbutyl methanoate]	0.012
CC(C)COC=O [(2-methylpropyl)-methanoate]	0.016
CCC(=O)OCC(C)C [(2-methylpropyl)-propanoate]	0.015
CCCCOC(=O)CCC [butyl butanoate]	0.016
CCCCOC(C)=O [butyl ethanoate]	0.035
CCCCOC=O [butyl methanoate]	0.019
CCCCOC(=O)CCCC [butyl pentanoate]	0.0098
CCCCOC(=O)CC [butyl propanoate]	0.02
CCOC(=O)C(C)(C)C [ethyl 2,2-dimethylpropanoate]	0.0057
CCOC(=O)C(C)CC (stereo not drawn) [ethyl 2-methylbutanoate]	0.014
CCOC(=O)C(C)C [ethyl 2-methylpropanoate]	0.017
CCOC(=O)CC(C)C [ethyl 3-methylbutanoate]	0.014
CCCC(=O)OCC [ethyl butanoate]	0.029
CCCCCCCCCC(=O)OCC [ethyl decanoate]	0.012
CCOC(C)=O [ethyl ethanoate]	0.063
CCCCCC(=O)OCC [ethyl hexanoate]	0.019
CCOC=O [ethyl methanoate]	0.035

Structure (SMILES)	Henry solubility constant Hcp
CCCCCCCC(=O)OCC [ethyl octanoate]	0.017
CCCCC(=O)OCC [ethyl pentanoate]	0.023
CCOC(=O)CC [ethyl propanoate]	0.041
CCCCCCOC(C)=O [hexyl ethanoate]	0.017
CCCCCCOC=O [hexyl methanoate]	0.01
CC(C)OC=O [isopropyl methanoate]	0.019
CCC(=O)OC(C)C [isopropyl propanoate]	0.018
COC(=O)C(C)(C)C [methyl 2,2-dimethylpropanoate]	0.0095
COC(=O)C(C)C [methyl 2-methylpropanoate]	0.026
CCCC(=O)OC [methyl butanoate]	0.042
COC(C)=O [methyl ethanoate]	0.081
CCCCCCC(=O)OC [methyl heptanoate]	0.018
CCCCCC(=O)OC [methyl hexanoate]	0.026
CCCCCCCCC(=O)OC [methyl nonanoate]	0.0082
CCCCCCCC(=O)OC [methyl octanoate]	0.012
CCCCC(=O)OC [methyl pentanoate]	0.03
CCC(=O)OC [methyl propanoate]	0.055
CCCCCOC(C)=O [pentyl ethanoate]	0.027
CCCCCOC=O [pentyl methanoate]	0.016
CCCCCOC(=O)CC [pentyl propanoate]	0.019
CCCOC(=O)CCC [propyl butanoate]	0.022
CCCOC(C)=O [propyl ethanoate]	0.045
CCCOC=O [propyl methanoate]	0.028
CCCOC(=O)CC [propyl propanoate]	0.029
